Read-outs that look alike come from different tables or passages of the source.
How the values were obtained:
male SD rats = assay: Thrombus formation in abdominal vena cava; assay type: in vivo; details: 30 mg/kg, p.o.; dry weight of thrombus
Procedure: Each of male SD rats of 130 to 210 g in body weight was anesthetized with Nembutal® (50 mg/kg, i.p.) and subjected to median incision ventrotomy to release about a 2 cm portion of abdominal vena cava below the renal vein. Blood flow of the thus released vena cava was temporarily stopped for 5 minutes with 8 hemostatic clips. After recirculating blood for 5 minutes by removing the hemostatic clips, […] was ligated at a position just below the renal vein and the median-incised part was sutured. Two hours after the ligature, the thus treated rat was again subjected to ventrotomy to excise abdominal vena cava. The thus excised blood vessel was cut open on a filter paper which had been moistened with physiological saline, in order to take out thrombus. The thrombus thus obtained was washed with physiological saline to remove adhered blood and the like substances and then dried at 80°C for 12 hours or longer to measure its dry weight. In this instance, each drug to be tested was orally administered 90 minutes before the clipping to examine its effect by single administration on the formation of thrombus. Separately from this, each test drug was administered to 6-week-old male SD rat continuously for 7 days, thrombus was prepared in the eighth day in the same manner as described above and dry weight of the thrombus was measured, in order to examine effect of the continuous 7 day administration on the thrombus formation.

red blood cells = assay: Inhibition of thermal hemolysis of red blood cells; assay type: cell-based, donryu rats; details: Rattus norvegicus, Erythrocyte, 20 min, 53°C for 20 minutes, read-out: Hemolysis Inhibition Ratio (%) against Control; for inhibition at 10 µM: 0.01 mM; for inhibition at 50 µM: 0.05 mM; for inhibition at 100 µM: 0.1 mM; for inhibition at 200 µM: 0.2 mM; for inhibition at 500 µM: 0.5 mM
Procedure: Blood was collected from donryu rats of 150 to 200 g in body weight and centrifuged at 1,500 rpm for 5 minutes to obtain red blood cells. The red blood cells thus collected were diluted with 0.15 M phosphate buffer (pH 7.4) to prepare a 5% red blood cell suspension. A 3.8 ml portion of the thus prepared suspension was mixed with 0.2 ml solution of each compound of the present invention which has been adjusted to each level of the concentrations as shown in the following table, and the resulting mixture was shaken thoroughly and incubated at 53°C for 20 minutes. Thereafter, the thus incubated mixture was cooled rapidly with tap water and centrifuged at 3,000 rpm for 15 minutes, and absorbance at 540 nm of the resulting supernatant fluid was measured using a spectrophotometer (Hitachi: Type 200-20). Inhibition rate (%) of red blood cell hemolysis at each concentration of the compound was calculated based on the absorbance, with the results shown in Table 8.

[1] = test system: rats of diabetes mellitus; assay: Blood sugar level in streptozotocin-induced diabetes mellitus; assay type: in vivo, male rats of Wistar line; details: 50 mg/kg, i.o.; administered for 1 week beginning 1 week after streptozotocin (40 mg/kg); serum
Procedure: In this experiment, 8-week-old male rats of Wistar line (5 individuals per one group) were used after rearing them for 1 week with normal feed. Streptozotocin (40 mg/kg) was administered by tail intravenous injection to obtain rats of diabetes mellitus. Beginning after 1 week of the streptozotocin administration, oral administration of each test drug has been carried out for 1 week, followed by 24 hours of fasting. Thereafter, blood sample was collected from lower abdominal vena cava under anesthesia with Nembutal® (1 ml/kg, i.p.). Serum samples were prepared from the thus collected blood samples and checked for their blood sugar levels, with the results shown in Table 9.

male mice of ddY line [2] = assay: Survival time under hypoxia (aeration with 96% nitrogen and 4% oxygen); assay type: in vivo; details: 50 mg/kg, i.p., 60 minutes before aeration with 96% nitrogen and 4% oxygen; time to respiratory arrest
Procedure: In this experiment, 5 to 6-week-old male mice of ddY line (10 individuals per one group) were used after fasting treatment for 24 hours.
Each compound obtained in the present invention was administered intraperitoneally. After 60 minutes of the administration, each mouse was transferred separately into a transparent vessel (capacity, 1,000 ml) equipped with an air exit, and the vessel was aerated with a mixed gas consisting of 96% nitrogen and 4% oxygen at an aeration rate of 5 ℓ/min.
All tested mice died within 180 seconds after the commencement of the gas mixture aeration. Terminal respiration was observed several times prior to the respiratory arrest. Survival time of the control group was roughly in the range of from 96 to 111 seconds.

male rats of SHR line = assay: Blood pressure in SHR rats; assay type: in vivo; details: 10 mg/kg, p.o., 2 weeks
Procedure: In this experiment, 12-week-old male rats of SHR line (5 to 6 individuals per one group) were used after rearing them for 1 week with normal feed. Oral administration of each test drug has been carried out for 2 weeks and then blood pressure (mmHg) was measured using a small animal hemomanometer (UR-1000).

[3] = test system: platelet rich plasma (PRP); assay: Platelet aggregation in platelet rich plasma after oral administration; assay type: in vivo, male rat; details: 30 mg/kg, p.o., blood 90 minutes after administration
Procedure: Each drug to be tested was orally administered to each male rat which has been subjected to fasting treatment for 18 to 24 hours. After 90 minutes of the administration, median incision ventrotomy was carried out under ether anesthesia to collect 9 volumes of blood using a syringe filled with 1 volume of 3.8% sodium citrate solution (3.8% sodium citrate solution:blood = 1:9). After thorough mixing, the thus prepared mixture was centrifuged at 800 rpm for 10 minutes at room temperature to collect the resulting supernatant fluid as platelet rich plasma (PRP). The residual portion was centrifuged at 3,000 rpm for 15 minutes at room temperature to collect the resulting supernatant fluid as platelet poor plasma (PPP). The PRP was diluted with the PPP to adjust the number of platelets to 3×10⁵ ± 2×10⁴ cells/µl. A 450 µl portion of the thus diluted PRP was incubated at 37°C for 3 minutes and then mixed with 50 µl of 1×10⁻⁵ M of ADP or 1×10⁻⁵ g/ml of collagen. Thereafter, platelet aggregation test of the mixture was carried out using an aggregometer by measuring transmittance at 940 nm.

erythrocytes = assay: Erythrocyte deformability (filtration through 5 µm filter) after oral administration; assay type: in vivo, male rats of Wistar line; details: 30 mg/kg, p.o.; blood collected 90 minutes after administration; number of filtered erythrocytes
Procedure: In this experiment, 9-week-old male rats of Wistar line (5 to 6 individuals per one group) were used after rearing them for 1 week with normal feed. After 24 hours of fasting, each test drug was administered orally and, 90 minutes thereafter, blood sample was collected from lower abdominal vena cava of each rat under anesthesia with Nembutal® (1 ml/kg, i.p.). Blood samples obtained in this way were checked for their blood clotting time and erythrocyte deformability.
Measuring procedures are as follows.
Erythrocyte deformability ... The collected blood is extruded from a syringe with a constant flow of He in a holder equipped with a filter (5 µm). Weight of blood and the number of erythrocytes filtered during a fixed time are measured and the deformability is expressed based on the number of filtered erythrocytes. The results of these measurements are shown respectively in Tables 11 and 12.

male mice of ddY line [4] = assay type: in vivo; details: 50 mg/kg, i.p., 60 minutes before KCN (3.0 mg/kg) tail intravenous injection; for Survival Time ±S.E.: time to respiratory arrest

SMILES | Antithrombotic Effect: Thrombus weight ±S.E. (male SD rats) [mg] | inhibition at 10 µM (red blood cells) [%] | inhibition at 50 µM (red blood cells) [%] | inhibition at 100 µM (red blood cells) [%] | inhibition at 200 µM (red blood cells) [%] | inhibition at 500 µM (red blood cells) [%] | Blood Sugar Level ± S.E. [1] [mg/dL] | Survival Time ±S.E. (male mice of ddY line [2]) [s] | Blood Pressure ±S.E. Average (male rats of SHR line) [mmHg] | Blood Pressure ±S.E. Maximum (male rats of SHR line) [mmHg] | Platelet Aggregation Ratio ±S.E. ([3]; ADP (1×10⁻⁵ M)) [%] | Platelet Aggregation Ratio ±S.E. ([3]; Collagen (1×10⁻⁵ g/ml)) [%] | Erythrocyte Deformation: Erythrocyte counts ±S.E. (erythrocytes) [× 10⁷] | Lethality (%) (male mice of ddY line [4]) | Survival Time ±S.E. (male mice of ddY line [4]) [s]
C[C@H](CC[C@H](O)[C@@H](C)CO)[C@H]1CC[C@H]2[C@@H]3[C@H](O)C[C@@H]4C[C@H](O)CC[C@]4(C)[C@H]3C[C@H](O)[C@]12C [Example 9, (24S)-(25S)-3α,7α,12α,24,26-pentahydroxy-5β-cholestane] | 12.5 ± 2.44 | 28 | 23 | 38 | 51 | 65 | 125 ± 6.6 | 126.5 ± 5.21 | 150 ± 8.9 | 199 ± 5.4 | 41.1 ± 1.21 | 49.1 ± 1.11 | 4.11 ± 0.44 | 80 | 101.2 ± 10.1
C[C@H](CC[C@H](O)[C@H](C)CO)[C@H]1CC[C@H]2[C@@H]3[C@H](O)C[C@@H]4C[C@H](O)CC[C@]4(C)[C@H]3C[C@H](O)[C@]12C [Example 10, (24S)-(25R) 3α,7α,12α,24,26-pentahydroxy-5β-cholestane] | 13.8 ± 2.85 | 24 | 21 | 31 | 44 | 58 | 133 ± 3.8 | 125.1 ± 3.89 | 155 ± 9.5 | 191 ± 7.2 | 42.2 ± 2.33 | 48.3 ± 1.65 | 4.41 ± 0.54 | 80 | 111.1 ± 9.11
C[C@H](CC[C@@H](O)[C@@H](C)CO)[C@H]1CC[C@H]2[C@@H]3[C@H](O)C[C@@H]4C[C@H](O)CC[C@]4(C)[C@H]3C[C@H](O)[C@]12C [Example 11, (24R)-(25S)-3α,7α,12α,24,26-pentahydroxy-5β-cholestane] | 14.4 ± 2.01 | 20 | 18 | 30 | 43 | 51 | 187 ± 2.5 | 121.1 ± 2.60 | 141 ± 9.1 | 188 ± 3.8 | 43.3 ± 2.81 | 40.8 ± 1.90 | 3.95 ± 0.64 | 80 | 103.0 ± 7.56
C[C@H](CO)[C@H](O)CC[C@@H](C)[C@H]1CC[C@H]2[C@@H]3[C@H](O)C[C@@H]4C[C@H](O)CC[C@]4(C)[C@H]3C[C@H](O)[C@]12C [Example 12, (24R)-(25R)-3α,7α,12α,24,26-pentahydroxy-5β-cholestane] | 12.2 ± 1.88 | 24 | 20 | 33 | 48 | 55 | 163 ± 3.8 | 118.1 ± 3.33 | 138 ± 9.5 | 173 ± 3.6 | 46.5 ± 5.82 | 41.3 ± 3.81 | 3.80 ± 0.78 | 90 | 121.3 ± 3.21
C[C@H](CC[C@@H](O)C(CO)CO)[C@H]1CC[C@H]2[C@@H]3[C@H](O)C[C@@H]4C[C@H](O)CC[C@]4(C)[C@H]3C[C@H](O)[C@]12C [Illustrative Example 1, (24R)-(+)-3α,7α,12α,24,26,27-hexahydroxy-5β-cholestane] | 15.1 ± 1.98 | 23 | 20 | 42 | 53 | 80 | 177 ± 5.5 | 155.4 ± 13.2 | 139 ± 8.5 | 205 ± 2.1 | 50.3 ± 1.32 | 43.8 ± 3.99 | 3.72 ± 0.55 | 70 | 159 ± 10.72

Reference: patent EP0489933A1, “BILE ALCOHOL AND DRUG CONTAINING THE SAME AS ACTIVE INGREDIENT” (TSUMURA CO., LTD., priority 1990, dated 1992)
